{
  "source": "paper PMC12595484",
  "about": "“Optimizing multifunctional fluorescent ligands for intracellular labeling” (Proceedings of the National Academy of Sciences of the …, 2025)",
  "data": [
    {"tested_on": "HEK293T cells expressing msGFP–HaloTag localized to the mitochondrial outer membrane", "assay": "HEK293T labeling and fluorescence microscopy", "format": "cell-based", "from_the_text": "Plasmid construction for mitochondria imaging and affinity purification. HaloTag, amplified from the pHTC HaloTag CMV-neo Vector (Promega; G7711) and monomeric-superfolder green fluorescent protein (msGFP; lab stock), was fused to the mitochondrial targeting signal from OMP25,8 interspacing flexible GS(GSS)4 linkers between each domain by PCR Splicing by Overlap Extension (SOE). This construct was subcloned into hSynapsin promoter bearing a copy of FUGW.9 FUGW was a gift from David Baltimore (Addgene plasmid # 14883; RRID:\nAddgene_14883).10 This construct was designated as pF(UG) hSyn HaloTag-TEV-4×GS-msGFP- […]\nHEK293T cell culture. HEK293T cells (ATCC) were passaged before 80% confluency by trypsinization (Corning; 25-053-CI) and trituration. The cell suspension was then plated on glass coverslips (Warner instruments; 64-0734, CS-18R17) coated with poly-D-lysine (Thermofisher; ICN10269491) and cultured in Dulbecco's modified Eagle medium (DMEM; ThermoFisher; 11965-118) supplemented with 10% (v/v) fetal bovine serum (FBS, Atlanta Biological) and penicillin/streptomycin (pen/strep; ThermoFisher; MT-30-001-CI) at 37 °C in a humidified 5% (v/v) CO2 environment following ATCC guidelines. These HEK293T cells were tested for mycoplasma contamination using the Universal Mycoplasma Detection Kit (ATCC; 30-1012K) and validated using Short Tandem Repeat profiling by ATCC (ATCC; 135-XV) within the previous year or were from newly purchased stock from ATCC. HEK293T cells were transfected with pF(UG) hSyn HaloTag-TEV-4×GS-msGFP-mito using a standard calcium phosphate protocol11 or using lipofectamine LTX reagent (ThermoFisher; 15338100). We note that this plasmid is optimized for lentivirus-mediated expression, but robust expression in HEK293T cells […]\nHEK293T labeling and fluorescence microscopy. One day after HEK293T cell transfection, the GFP fluorescence signal was confirmed, and HaloTag ligand labeling experiments were conducted. For pulse–chase experiments, HEK293T cells were incubated with biotin-HaloTag ligand (17HTL; #G8281, Promega) at either 100 nM or 10 μM for 1 hour at 37 °C and chased with 100 nM of JF549-HaloTag ligand (2HTL). We also evaluated a commercial biotin-HaloTag ligand […]\nindicated in the product information12 and from a previous publication.13 For labeling with biotin-JF-HaloTag ligands 13HTL–16HTL, cells were incubated with 100 nM or 1 µM ligand for 0.5–2 h at 37 °C. For imaging, the coverslips containing HEK293T cells were fixed with 4% (w/v) paraformaldehyde in PBS at 37 °C for 10 min, washed with PBS (3×), and mounted on glass slides with ProLong Glass Antifade Mountant with NucBlueTM Stain (ThermoFisher; P36981). These cells were imaged using a Zeiss LSM 880 with Airyscan and a plan-apochromatic 63×/1.40 oil objective in Fast Airyscan mode. The same image acquisition settings were used for each trial and condition. Images were then processed with automatic Airyscan deconvolution settings. For quantitation of labeling intensity, ROIs were drawn surrounding individual HEK cells, and the average fluorescence ratio (JF/msGFP) from multiple cells in each condition was measured; no background subtraction was necessary. […]\nJF608-HaloTag ligand (14HTL), biotin-JF646-HaloTag ligand (15HTL), or biotin-JF635-HaloTag ligand (16HTL) for 1 h at 37 °C, washed 3× with dye-free media, then fixed with 4% paraformaldehyde in 0.1 M phosphate buffer for 15 min at 37 °C. Fixed cells were then washed 3× in 1× PBS and incubated with Hoechst 33342 (5µg/mL) for 15 min at 22 °C as a nuclear counterstain. Airyscan imaging was performed on a Zeiss LSM 980 with Airyscan 2 confocal microscope using a Plan APO 63×/1.4 oil DIC M27 objective. The same acquisition settings were used for all constructs labeled with 13HTL–16HTL. These single plane images were bulk processed in ZEN Blue (Zeiss) with automatic Airyscan settings.\nDye loading kinetics. Live U2OS.H2B.HaloTag stable cells were labeled over a time course of […]", "values": [
      {"compound": "C[Si]1(C)c2cc(N3CC(F)C3)ccc2C2(OC(=O)c3ccc(C(=O)NCCOCCOCCCCCCCl)cc32)c2ccc(N3CC(F)C3)cc21", "note": "[6HTL, JF635–HaloTag ligand, reference compound]", "Pearson's correlation coefficient between rhodamine and GFP signals": 0.92},
      {"compound": "O=C(CCCCC1SCC2NC(=O)NC21)NCCOCCOCCNC(=O)C1C[N+](=c2ccc3c(-c4cc(C(=O)NCCOCCOCCCCCCCl)ccc4C(=O)[O-])c4ccc(N5CCC5)cc4oc-3c2)C1", "note": "(stereo not drawn) [13HTL, biotin–JF549–HaloTag ligand]", "intracellular labeling by live-cell imaging": "low intracellular signal"},
      {"compound": "C[Si]1(C)C2=CC(=[N+]3CC(C(=O)NCCOCCOCCNC(=O)CCCC[C@@H]4SC[C@@H]5NC(=O)N[C@@H]54)C3)C=CC2=C(c2cc(C(=O)NCCOCCOCCCCCCCl)ccc2C(=O)[O-])c2ccc(N3CCC3)cc21", "note": "(stereo partly drawn) [15HTL, biotin–JF646–HaloTag ligand]", "Pearson's correlation coefficient between rhodamine and GFP signals": 0.89, "intracellular labeling by live-cell imaging": "robust labeling and colocalization with mitochondrial-localized GFP"},
      {"compound": "C[Si]1(C)C2=CC(=[N+]3CC(F)(C(=O)NCCOCCOCCNC(=O)CCCC[C@@H]4SC[C@@H]5NC(=O)N[C@@H]54)C3)C=CC2=C(c2cc(C(=O)NCCOCCOCCCCCCCl)ccc2C(=O)[O-])c2ccc(N3CC(F)C3)cc21", "note": "(stereo partly drawn) [16HTL, biotin–JF635–HaloTag ligand]", "Pearson's correlation coefficient between rhodamine and GFP signals": 0.87, "intracellular labeling by live-cell imaging": "robust labeling and colocalization with mitochondrial-localized GFP"}
    ]}
  ]
}
